Source: PMC10058310 (Science Advances, 2023)

Key:
[1] = tested on: recombinant SARS2 encoding WT M^pro; assay: microbe, parasite or virus in culture; format: cell-based; details: A549-hACE2 cells; for IC50: Severe acute respiratory syndrome coronavirus 2, replication-competent SARS-CoV-2, M^pro WT, 72 hpi, read-out: IC50 (95% CI)
[2] = tested on: recombinant SARS2 encoding ∆P168 M^pro; assay: microbe, parasite or virus in culture; format: cell-based; details: Severe acute respiratory syndrome coronavirus 2; read-out: IC50 (95% CI)
SARS2 M^pro ∆P168 = SARS2 M^pro ∆P168 (Severe acute respiratory syndrome coronavirus 2, UniProt P0DTD1, DEL3431-3431); format: cell-based, SARS-CoV-2

| Structure (SMILES) | IC50 [1] | IC50 [2] | Fold change in antiviral EC50 ([1]; M^pro WT virus (reference)) | effect on dose-response curve versus WT M^pro (SARS2 M^pro ∆P168) |
| --- | --- | --- | --- | --- |
| Cn1cnc(Cn2c(=O)[nH]/c(=N\c3cc4cn(C)nc4cc3Cl)n(Cc3cc(F)c(F)cc3F)c2=O)n1 [Ensitrelvir, ensitrelvir] | 4.3 nM | 3.6 nM |  |  |
| CC(C)(C)[C@H](NC(=O)C(F)(F)F)C(=O)N1C[C@H]2[C@@H]([C@H]1C(=O)N[C@H](C#N)C[C@@H]1CCNC1=O)C2(C)C [Nirmatrelvir, nirmatrelvir] | 4.4 nM | 7 nM |  |  |
| CCC(CC)COC(=O)[C@H](C)N[P@](=O)(OC[C@H]1O[C@@](C#N)(c2ccc3c(N)ncnn23)[C@H](O)[C@@H]1O)Oc1ccccc1 [Remdesivir, remdesivir] | 1200 nM | 1100 nM | 1.0 fold |  |
| CC(C)(C)NC(=O)N[C@H](C(=O)N1C[C@H]2[C@@H]([C@H]1C(=O)NC(CC1CCC1)C(=O)C(N)=O)C2(C)C)C(C)(C)C (some centres unmarked) [boceprevir] |  |  |  | no detectable effect |
